Broadly, the IC50 is the midpoint of a concentration-inhibition curve.

The structures appear in SMILES notation. Where only a bound is given, the exact number is not on record here.

The target of the test is SARM1 (ARM-SAM-TIR) (Homo sapiens (Human), UniProt Q6SZW1). Put plainly: ARM-SAM-TIR SARM1 IC50 assay (NADase activity, NAD+ cleavage, RapidFire MS). It counts as biochemical. Conditions: ARM-SAM-TIR lysate 5 μg/mL, 2 h pre-incubation, 5 μM NAD+, 2 hr room temperature. The method, then: This Example describes an assay of ARM-SAM-TIR NADase activity and use of this assay to measure the efficacy of compounds of Formula I or Formula I′ to block SARM1 mediated NAD+ cleavage. This assay was optimized in such a way as to characterize the efficacy of the compounds in Formula I or Formula I′ to inhibit SARM1 activity and to calculate an IC50 value for each compound. This assay makes use of full length SARM1, which encompasses the ARM, SAM and TIR domains.
Chain of SARM1 (ARM-SAM-TIR) (Q6SZW1 other isoform, or with tags, fused parts or gaps): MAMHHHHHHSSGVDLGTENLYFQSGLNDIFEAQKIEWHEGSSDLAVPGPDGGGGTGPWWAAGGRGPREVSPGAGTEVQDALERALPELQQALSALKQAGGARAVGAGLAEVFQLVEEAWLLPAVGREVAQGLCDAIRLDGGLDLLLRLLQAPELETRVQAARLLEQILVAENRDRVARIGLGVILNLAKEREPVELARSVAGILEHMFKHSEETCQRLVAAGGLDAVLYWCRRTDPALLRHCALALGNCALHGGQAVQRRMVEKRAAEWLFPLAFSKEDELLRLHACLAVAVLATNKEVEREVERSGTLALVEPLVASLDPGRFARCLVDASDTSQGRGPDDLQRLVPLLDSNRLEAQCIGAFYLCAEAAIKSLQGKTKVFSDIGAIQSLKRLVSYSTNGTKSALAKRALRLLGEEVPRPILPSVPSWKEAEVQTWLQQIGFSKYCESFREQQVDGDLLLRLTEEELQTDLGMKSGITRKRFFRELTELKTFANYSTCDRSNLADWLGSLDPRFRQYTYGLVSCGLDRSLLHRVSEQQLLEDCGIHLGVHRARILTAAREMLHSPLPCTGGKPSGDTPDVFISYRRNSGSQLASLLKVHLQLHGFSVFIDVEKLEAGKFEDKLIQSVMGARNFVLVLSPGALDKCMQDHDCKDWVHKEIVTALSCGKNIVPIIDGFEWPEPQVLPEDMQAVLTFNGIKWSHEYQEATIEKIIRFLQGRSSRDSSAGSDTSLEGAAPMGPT
NRK1-HEK293T cells were seeded onto 150 cm^2 plates at 20×10^6 cells per plate. The next day, the cells were transfected with 15 μg ARM-SAM-TIR expression plasmid, SEQ ID NO: 1.
The cultures were supplemented with 1 mM NR at time of transfection to minimize toxicity from ARM-SAM-TIR overexpression. Forty-eight hours after transfection, cells were harvested, pelleted by centrifugation at 1,000 rpm (Sorvall ST 16R centrifuge, Thermo Fisher), and washed once with cold PBS (0.01 M phosphate buffered saline NaCl 0.138 M; KCl 0.0027 M; pH 7.4). The cells were resuspended in PBS with protease inhibitors (cOmplete™ protease inhibitor cocktail, Roche product #11873580001) and cell lysates were prepared by sonication (Branson Sonifer 450, output=3, 20 episodes of stroke). The lysates were centrifuged (12,000×g for 10 min at 4° C.) to remove cell debris and the supernatants (containing ARM-SAM-TIR protein) were stored at −80° C. for later use in the in vitro ARM-SAM-TIR NADase assay (see below). Protein concentration was determined by the Bicinchoninic (BCA) method and used to normalize lysate concentrations.
The enzymatic assay was performed in a 384-well polypropylene plate in Dulbecco's PBS buffer in a final assay volume of 20 μL. ARM-SAM-TIR lysate with a final concentration of 5 μg/mL was pre-incubated with the respective compound at 1% DMSO final assay concentration over 2 h at room temperature. The reaction was initiated by addition of 5 μM final assay concentration of NAD+ as substrate. After a 2 hr room temperature incubation, the reaction was terminated with 40 μL of stop solution of 7.5% trichloroactetic acid in acetonitrile. The NAD+ and ADPR concentrations were analyzed by a RapidFire High Throughput Mass Spectrometry System (Agilent Technologies, Santa Clara, Calif.) using an API4000 triple quadrupole mass spectrometer (AB Sciex Framingham, Mass.).
On to `Cc1c(-c2ccncc2)n[nH]c1NC(=O)COc1ccc(Cl)cc1` [Example 269], for which the IC50 was < 5 µM. Next, `O=C(CCc1ccc(Cl)cc1)Nc1nc(-c2ccncc2)ns1` [Example 61]: < 5 µM; `O=C(CCc1ccc(OC(F)(F)F)cc1)Nc1nnc(-c2ccncc2)[nH]1` [Example 120]: < 5 µM. The same measure for `Cc1ccc(CCC(=O)Nc2[nH]nc(-c3ccncc3F)c2C)cn1` [Example 307]: < 5 µM; for `N#Cc1c(-c2ccnnc2)n[nH]c1NC(=O)CCc1ccc(Cl)cc1` [Example 312]: < 5 µM. The same measure for `O=C(CCc1ccc(Cl)nc1)Nc1[nH]nc(-c2ccncc2)c1C1CC1` [Example 228]: < 5 µM; for `N#Cc1ccc(CCC(=O)Nc2nnc(-c3ccncc3)[nH]2)cc1` [Example 119]: < 5 µM. `CN(C(=O)CCc1ccc(Cl)nc1)c1cc(-c2ccncc2)n[nH]1` [Example 239]: the IC50 was < 5 µM. The same measure for `O=C(CCc1ccc(Cl)s1)Nc1nnc(-c2ccncc2)[nH]1` [Example 81]: < 5 µM; for `O=C(CCc1ccc(Cl)cc1)Nc1ncc(-c2ccncc2)s1` [Example 99]: 5 to 15 µM. Next, `Cc1c(-c2ccncc2)n[nH]c1NC(=O)[C@H]1C[C@H](c2ccc(Cl)nc2)C1` [Example 237]: < 5 µM. With `O=C(C[C@@H]1CCOc2nc(Cl)ccc21)Nc1nnc(-c2ccncc2)[nH]1` [Example 233], the IC50 is < 5 µM. The same measure for `O=C(Nc1nnc(-c2ccncc2)[nH]1)NC1CCOc2cc(Cl)ncc21` (centres unmarked) [Example 226]: < 5 µM; for `Cc1c(-c2ccncc2)n[nH]c1NC(=O)CS(=O)(=O)c1ccc(Cl)cc1` [Example 293]: < 5 µM; for `O=C(CCc1ccc(Cl)cc1)Nc1nnc(-c2ccnc(O)c2)[nH]1` [Example 33]: > 30 µM. The same measure for `O=C(CC1CCNc2ccccc21)Nc1nnc(-c2ccncc2)[nH]1` (centres unmarked) [Example 63]: > 30 µM.

`O=C(CCc1ccc(Cl)cc1F)Nc1nnc(-c2ccncc2)[nH]1` [Example 46]: the IC50 was < 5 µM. The same measure for `CN(C(=O)CCc1ccccc1)c1nnc(-c2ccncc2)[nH]1` [Example 98]: 5 to 15 µM; for `NS(=O)(=O)c1ccc(CCC(=O)Nc2nnc(-c3ccncc3)[nH]2)cc1` [Example 77]: 15 to 30 µM. As for `O=C(NCc1ccc(Cl)cc1)Nc1nnc(-c2ccncc2)[nH]1` [Example 92], the IC50 was < 5 µM. Next, `CC(C)(Cc1ccccc1)C(=O)Nc1nnc(-c2ccncc2)[nH]1` [Example 96]: 5 to 15 µM; `Cc1c(-c2ccncc2)n[nH]c1NC(=O)CCc1ccc(C(F)(F)F)cc1` [Example 200]: < 5 µM.

Take `Cc1ccc(CCC(=O)Nc2nnc(-c3ccncc3)[nH]2)cc1` [Example 139]: the IC50 is < 5 µM. Next, `O=C(C[C@H]1CCCc2ccccc21)Nc1nnc(-c2ccncc2)[nH]1` [Example 90]: < 5 µM; `Cc1ccc(CCC(=O)Nc2nnc(-c3ccncc3)[nH]2)cn1` [Example 83]: 5 to 15 µM. The same measure for `O=C(CCc1ccc(Cl)nc1)Nc1[nH]nc(-c2ccnnc2)c1C1CCC1` [Example 265]: < 5 µM; for `O=C(CNc1ccccc1)Nc1nnc(-c2ccncc2)[nH]1` [Example 69]: 5 to 15 µM; for `CCC(C)c1cc(C(=O)Nc2[nH]nc(-c3ccncc3)c2C)on1` (centres unmarked) [Example 244]: 5 to 15 µM. For the molecule `Cc1c(-c2ccncc2)n[nH]c1NC(=O)C(O)Cc1ccc(Cl)cc1` (centres unmarked) [Example 223], the IC50 is < 5 µM. The same measure for `Nc1cc(-c2n[nH]c(NC(=O)CCc3ccc(Cl)cc3)n2)ccn1` [Example 43]: < 5 µM. The same measure for `Nc1cnccc1-c1cc(NC(=O)CCc2ccc(Cl)nc2)[nH]n1` [Example 294]: < 5 µM.

On to `O=C(Nc1nnc(-c2ccncc2)[nH]1)[C@H]1C[C@@H](c2ccc(Cl)cc2)C1` [Example 23], for which the IC50 was < 5 µM. `Cc1c(-c2ccncc2)n[nH]c1NC(=O)c1ccc(-n2ccnn2)cc1` [Example 242] displayed an IC50 of 5 to 15 µM. With `O=C(CC1CCOc2cc(Cl)ccc21)Nc1cc(-c2ccnnc2)n[nH]1` (centres unmarked) [Example 192], the IC50 is < 5 µM. The same measure for `Cc1ccc(OCC(=O)Nc2[nH]nc(-c3ccncc3)c2C)cc1` [Example 257]: 5 to 15 µM; for `O=C(Nc1nnc(-c2ccncc2)[nH]1)[C@H]1C[C@H](c2ccc(Cl)nc2)C1` [Example 280]: < 5 µM. On to `O=C(CCc1ccc(Cl)nc1)Nc1[nH]nc(-c2ccncc2)c1F` [Example 266], for which the IC50 was < 5 µM. Turning to `CN(C)C(=O)Cc1c(-c2ccncc2)n[nH]c1NC(=O)CCc1ccc(Cl)cc1` [Example 301], the IC50 is < 5 µM.

Take `Clc1ccc(OCCNc2nnc(-c3ccncc3)[nH]2)cc1` [Example 28]: the IC50 was > 30 µM. Next, `O=C(CCc1ccc(Cl)cc1)Nc1nnc(-c2ccnnc2)[nH]1` [Example 53]: < 5 µM; `O=C(CN1C(=O)COc2ccccc21)Nc1nnc(-c2ccncc2)[nH]1` [Example 80]: 15 to 30 µM; `NC(=O)Cc1c(-c2ccncc2)n[nH]c1NC(=O)CCc1ccc(Cl)nc1` [Example 309]: < 5 µM. The same measure for `O=C(CCc1ccc2ccccc2c1)Nc1nnc(-c2ccncc2)[nH]1` [Example 130]: > 30 µM; for `Cc1c(-c2ccncc2)n[nH]c1NC(=O)[C@H]1C[C@H](c2ccc(Cl)cc2)C1` [Example 182]: < 5 µM; for `Cc1c(-c2ccncc2)n[nH]c1NC(=O)CC1CCOc2cc(Cl)ccc21` (centres unmarked) [Example 173]: < 5 µM. As for `O=C(CC1CCOc2nc(Cl)ccc21)Nc1nnc(-c2ccncc2)[nH]1` (centres unmarked) [Example 179], the IC50 is < 5 µM. The molecule `Cc1c(-c2ccncc2)n[nH]c1NC(=O)CNC(=O)CC(C)(C)C` [Example 259] displayed an IC50 of 5 to 15 µM. For `O=C(Cc1ccc(Cl)cc1)Nc1nnc(-c2ccncc2)[nH]1` [Example 65], the IC50 was < 5 µM.

On to `CN(Cc1ccc(Cl)cc1)C(=O)Nc1nnc(-c2ccncc2)[nH]1` [Example 164], for which the IC50 is < 5 µM. The same measure for `O=C(CCc1ccc(Cl)s1)Nc1nnc(-c2ccnnc2)[nH]1` [Example 12]: < 5 µM; for `O=C(CCc1ccc(Cl)cc1)Nc1cc(-c2ccncc2F)n[nH]1` [Example 25]: < 5 µM; for `O=C(CCc1ccc(Cl)cc1)Nc1cc(-c2ccncn2)n[nH]1` [Example 26]: < 5 µM.

For the molecule `O=C(CCc1ncc(C(F)(F)F)cn1)Nc1nnc(-c2ccncc2)[nH]1` [Example 57], the IC50 lay in the range of 15 to 30 µM. `O=C(CCc1cccc(F)c1)Nc1cc(-c2ccncc2)n[nH]1` [Example 14]: the IC50 is < 5 µM.

Turning to `O=C(CCc1ccc(O)cc1)Nc1nnc(-c2ccncc2)[nH]1` [Example 74], the IC50 is > 30 µM. Regarding `N[C@@H](Cc1ccc(Cl)cc1)C(=O)Nc1cc(-c2ccncc2)n[nH]1` [Example 3], the IC50 is < 5 µM.

Regarding `O=C(CCc1cnc(C(F)(F)F)nc1)Nc1nnc(-c2ccncc2)[nH]1` [Example 87], the IC50 was < 5 µM. The same measure for `O=C(NCc1ccc(Cl)nc1)Nc1cc(-c2ccncc2)n[nH]1` [Example 174]: < 5 µM; for `O=C(C[C@H]1CCOc2cc(Cl)ccc21)Nc1cc(-c2ccnnc2)n[nH]1` [Example 206]: < 5 µM; for `O=C(CCc1cnc(C(F)(F)F)nc1)Nc1cc(-c2ccncc2)n[nH]1` [Example 34]: < 5 µM. The same measure for `O=C(C[C@H]1CCc2ccccc21)Nc1nnc(-c2ccncc2)[nH]1` [Example 68]: 5 to 15 µM; for `O=C(CCc1ccc(C(F)(F)F)cc1)Nc1cc(-c2ccnnc2)n[nH]1` [Example 30]: < 5 µM. Next, `O=C(CCc1ccc(Cl)cc1)Nc1[nH]nc(-c2ccnnc2)c1C1CC1` [Example 273]: < 5 µM. Take `Cc1c(-c2ccncc2)n[nH]c1NC(=O)C[C@H]1CCOc2cc(Cl)ccc21` [Example 214]: the IC50 is < 5 µM.

In the case of `Cc1c(-c2ccnnc2)n[nH]c1NC(=O)CC1CCOc2cc(Cl)ccc21` (centres unmarked) [Example 231], the IC50 is < 5 µM. Next, `O=C(Nc1nnc(-c2ccncc2)[nH]1)C12CC(c3ccccc3)(C1)C2` [Example 66]: < 5 µM; `Cc1ccc(CCC(=O)Nc2[nH]nc(-c3ccncc3)c2C)cn1` [Example 306]: < 5 µM; `O=C(CC1CCOc2cc(Cl)ncc21)Nc1nnc(-c2ccncc2)[nH]1` (centres unmarked) [Example 180]: < 5 µM.

Source of the values: US12331033B2, “Inhibitors of SARM1” (Disarm Therapeutics, Inc., priority 2020, dated 2025).
